Measured values from publication PMC7893776, “Selecting an anti-malarial clinical candidate from two potent dihydroisoquinolones” (Malaria Journal, 2021).
Like-named read-outs stand apart in the source and are kept apart here.

Columns and labels:
[1] = Microsomal stability, mouse; assay type: in vitro ADME; settings: mouse microsomes; for CLint in vitro: independent replicate to Table 4; for CLint in vivo: scaled up using PBSF
Description: (§1) The metabolic stability assay was performed by incubating compounds individually (0.8, 4, or 20 µM) with mouse, rat, dog and human liver microsomes (Fisher, 0.5 mg/mL protein concentration) at 37 °C. The metabolic reaction was initiated by the addition of a NADPH-regenerating system and quenched at various time points by the addition of acetonitrile according to a published method.
(§2) The remaining concentration of each compound was measured as a ratio of peak area to the internal standard. The log peak area ratio was plotted vs. time (h), and the slope was determined to calculate the elimination rate constant [k = (− 2.303) * slope]. If deviation from first order kinetics was evident, only the initial linear portion of the plot was used to determine the rate constate, k. The half-life (h) was calculated as t1/2 = 0.693/k. Intrinsic clearance in vitro was calculated as CLintin vitro = (1000)*(0.693/t1/2*60)/0.5, where microsomal concentration in the reaction solution was 0.5 mg/mL; 1000 and 60 are scaling factors for volume (µL) and time (min), respectively. The intrinsic in vitro clearance was scaled to the intrinsic in vivo clearance using physiology based scaling factor (PBSF): CLint in vivo= CLint in vitro *PBSF: (microsome protein/gram liver) * (gram liver/kg b.w.), with PBSF: 47 (mouse), 47(rat), 58 (dog), 32 (human); and liver weight proportions: 54.9 (mouse), 36.6 (rat), 32.9 (dog) 25.7 (human).

[2] = Microsomal stability, rat; assay type: in vitro ADME; settings: rat microsomes; for CLint in vitro: independent replicate to Table 4; for CLint in vivo: scaled up using PBSF
Description: as §1, §2

[3] = Microsomal stability, dog; assay type: in vitro ADME; settings: dog microsomes; for CLint in vitro: independent replicate to Table 4; for CLint in vivo: scaled up using PBSF
Description: as §1, §2

[4] = Dog pharmacokinetics, single PO or IV dose; assay type: in vivo, male beagle dogs; settings: for bioavailability: read-out: Dog F (oral bioavailability)
Description: Studies were undertaken to determine the plasma pharmacokinetics of SJ733 and SJ311. These studies included: (i) single oral gavage (PO) or intravenous (IV) dose administration to female C57BL/6 mice; (ii) single PO or IV dose administration to male Sprague Dawley (SD) rats; (iii) single PO or IV dose administration to male beagle dogs; (iv) toxicokinetic (TK) study following single PO administration to male SD rats. The PO and IV formulation used for mouse studies at SJCRH was 1% hydroxypropyl-beta-cyclodextrin (w/v), 10% ethanol (v/v), 10% propylene glycol (v/v), 40% PEG-400 (v/v) and 39% PBS (pH 7.4) isotonic (v/v). Compounds were dosed orally as suspensions, and intravenously as filtered solutions. Compound concentrations were confirmed post filtration using UV spectroscopy. The IV formulation used for rat studies (Monash University) was the same as that used for mice. For PO dosing to rats (Monash University) at 2 mg/kg, a suspension formulation was used containing 0.5% (w/v) hydroxypropyl methylcellulose, 0.5% (v/v) benzyl alcohol and 0.4% (v/v) Tween 80. The formulation used for rat studies at SRI (PO, high dose) was the same as that used in mouse PK studies. The formulation for the high dose TK study at SRI was 0.5% methylcellulose in sterile water. The formulation used for dog studies was the same as that used in mouse PK studies. The plasma PK of SJ733 and SJ311 following a single PO gavage or IV dose (via saphenous vein) to male beagle dogs was determined at an IV dose of 3 mg/kg and PO doses of 3 and 30 mg/kg (n = 3 for each). Briefly, this PK study was carried out in three sessions with one week washout period in between to allow for complete clearance of compounds. In the first session, 6 male dogs were administered a single 3 mg/kg IV dose of SJ311 or SJ733. In the subsequent second and third sessions, the same 6 male dogs were given a single 3 mg/kg or 30 mg/kg PO dose of SJ311 or SJ733, respectively. Plasma (0 -72 h) and urine (0–48 h) samples were collected for further analysis of SJ311 or SJ733 concentrations. Dog plasma was extracted utilizing protein precipitation with a twofold volume ratio of acetonitrile, while urine samples were extracted utilizing liquid–liquid extraction with ethyl acetate. SJ733, SJ311, and verapamil (IS) were quantitated by LC–MS/MS as described above. Plasma concentration time (Ct) data for SJ733 and SJ311 were grouped by nominal time point, and the mean Ct values were subjected to noncompartmental analysis (NCA) using Phoenix WinNonlin 8.1 (Certara USA, Inc., Princeton, NJ). For all experiments, the area under the Ct and first moment curves (AUC, AUMC) were estimated using the “linear up log down” method. The terminal phase was defined as at least three time points at the end of the Ct profile, and the elimination rate constant (Kel) was estimated using an unweighted log-linear regression of the terminal phase. The terminal elimination half-life (T1/2) was estimated as 0.693/Kel, and the AUC from time 0 to infinity ([…]) was estimated as the AUC to the last time point (AUClast) + Clast (predicted)/Kel with the […] similarly calculated. Additional parameters estimated included observed maximum concentration (Cmax), time of Cmax (Tmax), concentration at the last observed time point (Clast), time of Clast (Tlast), and the apparent oral terminal volume of distribution (V/F). The apparent oral clearance (CL/F), systemic clearance (CL) and volume of distribution at steady state (Vss) were all estimated using standard formulae [19].

[5] = target: T1, CYP2C19 (Homo sapiens, UniProt P33261); assay: CYP450 inhibition, CYP2C19; assay type: in vitro ADME
T1 construct: purchased Cypex Ltd (Bactosomes)

[6] = target: T2, CYP2D6 (Homo sapiens, UniProt P10635); assay: CYP450 inhibition, CYP2D6; assay type: in vitro ADME
T2 construct: purchased Cypex Ltd (Bactosomes)

[7] = LogD octanol/pH 7.4 buffer shake flask; assay type: physicochemical; settings: pH 7.4
Description: Octanol/pH 7.4 buffer partitioning experiments were conducted using a shake flask method, and pKa was assessed by potentiometric titration. Both methods have been described previously.

[8] = male, beagle, plasma, po, dosed orally, read-out: Tmax
[9] = male, beagle, plasma, po, summary over the oral doses studied

T1 sequence (P33261 whole entry): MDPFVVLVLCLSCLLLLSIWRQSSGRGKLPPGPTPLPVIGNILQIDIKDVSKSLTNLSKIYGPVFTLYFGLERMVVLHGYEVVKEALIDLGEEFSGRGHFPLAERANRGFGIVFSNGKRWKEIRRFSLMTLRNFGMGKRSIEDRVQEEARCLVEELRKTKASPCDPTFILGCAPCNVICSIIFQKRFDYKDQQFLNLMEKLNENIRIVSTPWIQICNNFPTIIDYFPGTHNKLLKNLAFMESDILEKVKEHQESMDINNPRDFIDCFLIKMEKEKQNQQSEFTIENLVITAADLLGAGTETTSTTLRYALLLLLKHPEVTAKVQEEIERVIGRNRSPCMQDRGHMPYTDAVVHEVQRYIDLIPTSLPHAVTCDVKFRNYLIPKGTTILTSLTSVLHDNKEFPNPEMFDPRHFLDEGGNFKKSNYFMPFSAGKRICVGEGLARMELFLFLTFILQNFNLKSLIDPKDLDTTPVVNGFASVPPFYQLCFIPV
T2 sequence (P10635 whole entry): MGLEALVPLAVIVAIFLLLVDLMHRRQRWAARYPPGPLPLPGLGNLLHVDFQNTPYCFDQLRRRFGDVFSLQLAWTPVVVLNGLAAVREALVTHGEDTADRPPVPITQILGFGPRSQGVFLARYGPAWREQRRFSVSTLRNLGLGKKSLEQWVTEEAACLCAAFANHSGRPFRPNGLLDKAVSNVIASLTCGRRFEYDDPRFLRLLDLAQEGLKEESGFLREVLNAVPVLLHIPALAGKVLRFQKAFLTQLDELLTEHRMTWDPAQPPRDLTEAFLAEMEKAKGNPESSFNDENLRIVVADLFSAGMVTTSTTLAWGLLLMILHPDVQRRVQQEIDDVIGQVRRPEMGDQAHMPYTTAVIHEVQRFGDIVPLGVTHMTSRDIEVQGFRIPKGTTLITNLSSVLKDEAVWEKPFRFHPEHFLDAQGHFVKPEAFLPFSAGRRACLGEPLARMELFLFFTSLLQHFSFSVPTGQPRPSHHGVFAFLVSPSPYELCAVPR

Q: Which results are given for `N#Cc1cc(NC(=O)[C@H]2c3ccccc3C(=O)N(CC(F)(F)F)[C@@H]2c2cccnc2)ccc1F` [(+)-SJ733]?
A: CLint ([1]; 0.8 µM): 35.4 ± 2.1 µl/min/mg protein; t1/2 ([1]; 0.8 µM): 0.7 ± 0.1 h; CLint in vitro ([1]; 0.8 µM): 33.9 ± 1.3 µl/min/mg protein; CLint in vivo ([1]; 0.8 µM): 79.3 ± 3.0 mL/min/kg; CLint in vitro ([1]; 4 µM): 27.2 ± 1.3 µl/min/mg protein; CLint in vivo ([1]; 4 µM): 63.8 ± 2.9 mL/min/kg; CLint in vitro ([1]; 20 µM): 15.9 ± 2.2 µl/min/mg protein; CLint in vivo ([1]; 20 µM): 37.3 ± 5.3 mL/min/kg; CLint ([2]; 0.8 µM): < 7 µl/min/mg protein; t1/2 ([2]; 0.8 µM): > 4 h; CLint in vitro ([2]; 0.8 µM): <7 µl/min/mg protein; CLint in vivo ([2]; 0.8 µM): <11.7 mL/min/kg; CLint in vitro ([2]; 4 µM): <7 µl/min/mg protein; CLint in vivo ([2]; 4 µM): <11.7 mL/min/kg; CLint in vitro ([2]; 20 µM): <7 µl/min/mg protein; CLint in vivo ([2]; 20 µM): <11.7 mL/min/kg; CLint ([3]; 0.8 µM): < 7 µl/min/mg protein; t1/2 ([3]; 0.8 µM): > 4 h; CLint in vitro ([3]; 0.8 µM): <7 µl/min/mg protein; CLint in vivo ([3]; 0.8 µM): <8.3 mL/min/kg; CLint in vitro ([3]; 4 µM): <7 µl/min/mg protein; CLint in vivo ([3]; 4 µM): <8.3 mL/min/kg; CLint in vitro ([3]; 20 µM): <7 µl/min/mg protein; CLint in vivo ([3]; 20 µM): <8.3 mL/min/kg; AUCinf ([4]; single IV 3 mg/kg): 33.1 ± 10.0 µM·h; CL ([4]; single IV 3 mg/kg): 3.4 ± 0.9 mL/min/kg; Dose in urine ([4]; single IV 3 mg/kg): 1.9 ± 0.3%; Half life ([4]; single IV 3 mg/kg): 9.6 ± 4.7 h; Vss ([4]; single IV 3 mg/kg): 2.8 ± 1.8 L/kg; AUCinf ([4]; single PO 3 mg/kg): 40.6 ± 12.9 µM·h; CL ([4]; single PO 3 mg/kg): 2.82 ± 0.917 mL/min/kg; Cmax ([4]; single PO 3 mg/kg): 3 ± 0.7 µM; Dose in urine ([4]; single PO 3 mg/kg): 2.8 ± 0.2%; F% ([4]; single PO 3 mg/kg): 115 ± 29%; Half life ([4]; single PO 3 mg/kg): 11.4 ± 5.0 h; Tmax ([4]; single PO 3 mg/kg): 0.83 h; V ([4]; single PO 3 mg/kg): 2.6 ± 0.8 L/kg; AUCinf ([4]; single PO 30 mg/kg): 243 ± 52.9 µM·h; CL ([4]; single PO 30 mg/kg): 4.57 ± 1.12 mL/min/kg; Cmax ([4]; single PO 30 mg/kg): 25.6 ± 2.1 µM; Dose in urine ([4]; single PO 30 mg/kg): 3.1 ± 1.9%; F% ([4]; single PO 30 mg/kg): 73.7 ± 16.1%; Half life ([4]; single PO 30 mg/kg): 5.3 ± 0.7 h; Tmax ([4]; single PO 30 mg/kg): 1.67 h; V ([4]; single PO 30 mg/kg): 2.1 ± 0.8 L/kg

Q: For `N#Cc1cc(NC(=O)[C@H]2c3ccccc3C(=O)N(CC(F)(F)F)[C@@H]2c2cccnc2)ccc1F` (racemic) [SJ733], which “CYP2C19 inhibition, in words” value [5] is on record?
A: weakly inhibited

Q: What about the “CYP2D6 inhibition, in words” value [6] of the same molecule?
A: weak inhibitors

Q: What about the Tmax [4, 8] of the same molecule?
A: 1 h

Q: And the bioavailability [4, 9]?
A: 60 to 100%

Q: What about the “Dog F (oral bioavailability)” value ([4]; summary over the oral doses studied) of the same molecule?
A: 74-115%

Q: What does the source list for `N#Cc1cc(NC(=O)[C@H]2c3ccccc3C(=O)N(CC(F)(F)F)[C@@H]2c2cn[nH]c2)ccc1F` [SJ311]?
A: logD [7]: 2.3; CYP2C19 inhibition, in words [5]: weak inhibitor; CYP2D6 inhibition, in words [6]: weak inhibitors; Tmax [4, 8]: 3 h; bioavailability [4, 9]: 74 to 78%; % dose recovered in dog urine ([4]; regardless of route, mean): 32-34%
